Patent US7402606B2, “Derivatives of 1-(oxoaminoacetyl) pentylcarbamate as cathepsin K inhibitors for the treatment of bone loss” (SmithKline Beecham Corporation, priority 2002, dated 2008)
pIC50: −log10 of the molar value.

molecular target: T1, human cathepsin K (Homo sapiens, UniProt P43235); assay: Cathepsin K inhibition assay, human recombinant enzyme, fluorogenic substrate Cbz-Phe-Arg-AMC; format: biochemical; conditions: Table 1, human cathepsin K; read-out: h Cat K IC50
T1 construct: The proform of cathepsin K was converted to mature cathepsin K by brief exposure to pH 4; made in house; host or cells: baculovirus; Trichoplusia ni High Five cells (virus raised in Sf-9)
T1 sequence (P43235 115-329): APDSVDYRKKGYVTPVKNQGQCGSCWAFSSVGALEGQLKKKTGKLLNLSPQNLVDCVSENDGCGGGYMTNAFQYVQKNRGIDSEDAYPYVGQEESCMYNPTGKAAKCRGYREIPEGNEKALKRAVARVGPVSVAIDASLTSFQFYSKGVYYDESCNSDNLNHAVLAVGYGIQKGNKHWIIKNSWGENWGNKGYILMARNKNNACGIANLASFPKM
Experimental: All assays for cathepsin K were carried out with human and rat recombinant enzyme. Assays for cathepsins S ? V were also carried out with human recombinant enzyme. Assays for human cathepsins B, H, and L were carried out with enzyme, purchased from Athens Research and Technology, Inc., prepared from human liver tissue. […] A stock substrate solution of Cbz-Phe-Arg-AMC was prepared at a concentration of 50 mM in dimethyl sulfoxide. This substrate was diluted into the assay for a final substrate concentration of 10 μM in the rat cathepsin K, human cathepsin K, and human cathepsin B assays; a final substrate concentration of 5 μM in the human cathepsin L assay; and a final substrate concentration of 2 μM in the human cathepsin V assay.
All assays contained 10% dimethyl sulfoxide. […] All assays were conducted at 30° C. Product fluorescence (excitation at 360 nm; emission at 440 nm, (except cathepsin H which used excitation at 340 nm; emission at 420 nm)) was monitored with a PerSeptive Biosystems Cytofluor II fluorescence plate reader. Product progress curves were generated over 2.3 h monitoring the formation of 7-amino-4-methylcoumarin product (or β-naphthalamide for cathepsin H).
Human and rat Cathepsin K:
Two liters of Spodoptera frugiperda (Sf-9) cells (ATCC) were grown in Grace's Supplemented medium (Life Technologies) supplemented with 2 g/L glucose, 10% fetal bovine serum (HyClone) and 0.1% pluronic F-68 (Life Technologies). […] The cells continued to grow for 72 h post-infection, before the virus was harvested by centrifugation at 1400×g for 30 min.
One and one-half liters of Trichoplusia ni (T. ni) High Five (™) cells [JRH Biosciences, Woodland, Calif. […] The cells were grown for 24 h at 28° C., 50 RPM, and 50% dissolved oxygen. […] Media were separated from cells at a rate of 1 L/min using the Centritech 100 ™ continuous-flow centrifuge (DuPont) operating at 200×g.
Protein Purification: Media (human and rat) were filtered through a Whatman 3 filter, and then loaded onto a 25 mL. Poros HS II (26 mm×47 mm) cation exchange column equilibrated in 25 mM sodium acetate at pH 5.5 (equilibration buffer). The column was washed until the absorbance reached the baseline value, and then the protein was eluted with a linear gradient from 0-2 M sodium chloride in the equilibration buffer. Column fractions were analyzed by SDS-PAGE, N-terminal sequencing, and mass spectrometry. Fractions containing the proform of cathepsin K were pooled and frozen at −80° C. The proform was concentrated in an Amicon Centriprep 10 and fractionated with a Superdex 75 column (26 mm×600 mm, Pharmacia) equilibrated in 400 mM sodium chloride, 25 mM sodium acetate at pH 5.5.
Cathepsin K Activation: The proform of cathepsin K was converted to mature cathepsin K by brief exposure to pH 4 in the presence of 5 mM L-cysteine. Typically, 5 mM L-cysteine was added to 10 mL of approximately 1 mg/mL procathepsin K. One mL of this solution was diluted ten-fold into 450 mM sodium acetate at pH 4.0 containing 5 mM L-cysteine. This solution was reacted at 23° C. for 2 min before neutralization with 2 mL, 1.8 M sodium acetate at pH 6.0. The neutralized sample was added to the remaining 9 mL of procathepsin K. The mixture was incubated at 4° C. for 2-3 days. The activated cathepsin K was chromatographed on a Poros HS II column as described above.
Potential inhibitors were evaluated using the progress curve method. Assays were carried out in the presence of variable concentrations of test compound. Reactions were initiated by addition of buffered solutions of inhibitor and substrate to enzyme. Data analysis was conducted according to one of two procedures depending on the appearance of the progress curves in the presence of inhibitors. […] Ki values were calculated from IC50 values using equation 2 assuming a competitive model.

| Structure (SMILES) | pIC50 |
| --- | --- |
| CCCC[C@H](NC(=O)O[C@@H]1C(=O)OCC1(C)C)C(=O)C(=O)N[C@H](C)c1ccccc1 [Example 1, (3S)-4,4-dimethyl-2-oxotetrahydro-3-furanyl (1S)-1-(oxo([(1R)-1-phenylethyl]amino}acetyl)pentylcarbamate] | 8.00 to 9.00 |
| CNC(=O)NCCCC[C@H](NC(=O)O[C@@H]1C(=O)OCC1(C)C)C(=O)C(=O)N[C@H](C)c1ccccc1 [Example 2, (3S)-4,4-dimethyl-2-oxotetrahydro-3-furanyl (1S)-5-{[(methylamino)carbonyl]amino}-1-(oxo{[(1R)-1-phenylethyl]amino}acetyl)pentylcarbamate] | 8.00 to 9.00 |
| CCCC[C@H](NC(=O)OC1C(=O)OC[C@]1(C)CC)C(=O)C(=O)N[C@H](C)c1ccccc1 (stereo partly drawn) [Example 3, (4S)-4-ethyl-4-methyl-2-oxotetrahydro-3-furanyl (1S)-1-(oxo{[(1R)-1-phenylethyl]amino}acetyl)pentylcarbamate] | 8.00 to 9.00 |
| CCCC[C@H](NC(=O)OC1C(=O)N(Cc2ccccc2)CC1(C)C)C(=O)C(=O)N[C@H](C)c1ccccc1 (stereo partly drawn) [Example 4, 1-Benzyl-4,4-dimethyl-2-oxo-3-pyrrolidinyl (1S)-1-(oxo{[(1R)-1-phenylethyl]amino}acetyl)pentylcarbamate] | 7.00 to 8.00 |
| CCCC[C@H](NC(=O)OC1C(=O)N(C(=O)OCc2ccccc2)CC1(C)C)C(=O)C(=O)N[C@H](C)c1ccccc1 (stereo partly drawn) [Example 5, Benzyl 4,4-dimethyl-2-oxo-3-[({[(1S)-1-(oxo{[(1R)-1-phenylethyl]amino}acetyl)pentyl]amino}carbonyl)oxy]-1-pyrrolidinecarboxylate] | 7.00 to 8.00 |
| CCCC[C@H](NC(=O)OC1C(=O)N(C)CC1(C)C)C(=O)C(=O)N[C@H](C)c1ccccc1 (stereo partly drawn) [Example 7, 1,4,4-trimethyl-2-oxo-3-pyrrolidinyl (1S)-1-(oxo{[(1R)-1-phenylethyl]amino}acetyl)pentylcarbamate] | 7.00 to 8.00 |
| CCCCC(NC(=O)O[C@@H]1CN(Cc2ccccc2)CC1(C)C)C(=O)C(=O)N[C@H](C)c1ccccc1 (stereo partly drawn) [Example 8, (3S)-1-Benzyl-4,4-dimethylpyrrolidinyl 1-(oxo{[(1R)-1-phenylethyl]amino}acetyl)pentylcarbamate] | 7.00 to 8.00 |
| CCCC[C@H](NC(=O)O[C@@H]1CN(C(=O)c2ccccc2)CC1(C)C)C(=O)C(=O)N[C@H](C)c1ccccc1 [Example 9] | 7.00 to 8.00 |
| CCCC[C@H](NC(=O)O[C@@H]1CN(C(C)=O)CC1(C)C)C(=O)C(=O)N[C@H](C)c1ccccc1 [Example 10, (3S)-1-Acetyl-4,4-dimethylpyrrolidinyl (1S)-1-(oxo{[(1R)-1-phenylethyl]amino}acetyl)pentylcarbamate] | 7.00 to 8.00 |
| CCCC[C@H](NC(=O)O[C@@H]1CN(C(=O)Cc2ccccc2)CC1(C)C)C(=O)C(=O)N[C@H](C)c1ccccc1 [Example 11, (3S)-4,4-Dimethyl-1-(phenylacetyl)pyrrolidinyl (1S)-1-(oxo{[(1R)-1-phenylethyl]amino}acetyl)pentylcarbamate] | 8.00 to 9.00 |
| CCCC[C@H](NC(=O)O[C@@H]1CN(C(=O)c2ccno2)CC1(C)C)C(=O)C(=O)N[C@H](C)c1ccccc1 [Example 12] | 8.00 to 9.00 |
| CCCC[C@H](NC(=O)O[C@@H]1CN(C(=O)c2snnc2C)CC1(C)C)C(=O)C(=O)N[C@H](C)c1ccccc1 [Example 13, (3S)-4,4-Dimethyl-1-[(4-methyl-1,2,3-thiadiazol-5-yl)carbonyl]pyrrolidinyl (1S)-1-(oxo {[(1R)-1-phenylethyl]amino}acetyl)pentylcarbamate] | 7.00 to 8.00 |
| CCCC[C@H](NC(=O)O[C@@H]1CN(C(=O)c2cc(C(C)(C)C)nn2C)CC1(C)C)C(=O)C(=O)N[C@H](C)c1ccccc1 [Example 14, (3S)-1-[(3-tert-Butyl-1-methyl-1H-pyrazol-5-yl)carbonyl]-4,4-dimethylpyrrolidinyl (1S)-1-(oxo{[(1R)-1-phenylethyl]amino}acetyl)pentylcarbamate] | 8.00 to 9.00 |
| CCCC[C@H](NC(=O)O[C@@H]1CN(C(=O)c2nn(-c3ccccc3)nc2C)CC1(C)C)C(=O)C(=O)N[C@H](C)c1ccccc1 [Example 15, (3S)-4,4-Dimethyl-1-[(5-methyl-2-phenyl-2H-1,2,3-triazol-4-yl)carbonyl]pyrrolidinyl (1S)-1-(oxo{[(1R)-1-phenylethyl]amino}acetyl)pentylcarbamate] | 8.00 to 9.00 |
| CCCC[C@H](NC(=O)O[C@@H]1CN(C(=O)c2ccc3c(c2)OCO3)CC1(C)C)C(=O)C(=O)N[C@H](C)c1ccccc1 [Example 16, (3S)-1-(1,3-Benzodioxol-5-ylcarbonyl)-4,4-dimethylpyrrolidinyl (1S)-1-(oxo{[(1R)-1-phenylethyl]amino}acetyl)pentylcarbamate] | 8.00 to 9.00 |
| CCCC[C@H](NC(=O)O[C@@H]1CN(C(=O)c2cc3ccccc3s2)CC1(C)C)C(=O)C(=O)N[C@H](C)c1ccccc1 [Example 17, (3S)-1-(1-Benzothien-2-ylcarbonyl)-4,4-dimethylpyrrolidinyl (1S)-1-(oxo{[(1R)-1-phenylethyl]amino}acetyl)pentylcarbamate] | 8.00 to 9.00 |
| CCCC[C@H](NC(=O)O[C@@H]1CN(C(=O)c2ccc3ccccc3c2)CC1(C)C)C(=O)C(=O)N[C@H](C)c1ccccc1 [Example 18, (3S)-4,4-Dimethyl-1-(2-naphthoyl)pyrrolidinyl (1S)-1-(oxo {[(1R)-1-phenylethyl]amino}acetyl)pentylcarbamate] | 8.00 to 9.00 |
| CCCC[C@H](NC(=O)O[C@@H]1CN(C(=O)c2cc(C)on2)CC1(C)C)C(=O)C(=O)N[C@H](C)c1ccccc1 [Example 19, (3S)-4,4-Dimethyl-1-[(5-methyl-3-isoxazolyl)carbonyl]pyrrolidinyl (1S)-1-(oxo {[(1R)-1-phenylethyl]amino}acetyl)pentylcarbamate] | 7.00 to 8.00 |
| CCCC[C@H](NC(=O)O[C@@H]1CN(C(=O)c2ccc(-c3ccccc3)cc2)CC1(C)C)C(=O)C(=O)N[C@H](C)c1ccccc1 [Example 20] | 8.00 to 9.00 |
| CCCC[C@H](NC(=O)O[C@@H]1CN(C(=O)c2ccc3[nH]ccc3c2)CC1(C)C)C(=O)C(=O)N[C@H](C)c1ccccc1 [Example 21, (3S)-1-(1H-Indol-5-ylcarbonyl)-4,4-dimethylpyrrolidinyl (1S)-1-(oxo{[(1R)-1-phenylethyl]amino}acetyl)pentylcarbamate] | 8.00 to 9.00 |
| CCCC[C@H](NC(=O)O[C@@H]1CN(C(=O)c2ccc3[nH]nnc3c2)CC1(C)C)C(=O)C(=O)N[C@H](C)c1ccccc1 [Example 22, (3S)-1-(1H-1,2,3-Benzotriazol-5-ylcarbonyl)-4,4-dimethylpyrrolidinyl (1S)-1-(oxo{[(1R)-1-phenylethyl]amino}acetyl)pentylcarbamate] | 8.00 to 9.00 |
| CCCC[C@H](NC(=O)O[C@@H]1CN(C(=O)Cc2cccc(Oc3ccccc3)c2)CC1(C)C)C(=O)C(=O)N[C@H](C)c1ccccc1 [Example 23, (3S)-4,4-Dimethyl-1-[(3-phenoxyphenyl)acetyl]pyrrolidinyl (1S)-1-(oxo{[(1R)-1-phenylethyl]amino}acetyl)pentylcarbamate] | 7.00 to 8.00 |
| CCCC[C@H](NC(=O)O[C@@H]1CN(C(=O)CCCc2ccccc2)CC1(C)C)C(=O)C(=O)N[C@H](C)c1ccccc1 [Example 24, (3S)-4,4-Dimethyl-1-(4-phenylbutanoyl)pyrrolidinyl (1S)-1-(oxo {[(1R)-1-phenylethyl]amino}acetyl)pentylcarbamate] | 7.00 to 8.00 |
